# Target: T1, recombinant human DHODH (Homo sapiens, UniProt Q02127)
# T1 construct: provided by Prof; M. Löffler, Marburg, Germany (gift, not a commercial vendor)
# Experiment: Inhibition assay of DHODH activity, human enzyme
# Assay type: biochemical
# Settings: class symbol (head prints μM, key in nM)
# Method: The standard assay mixture contained 50 μM decyclo ubichinone, 100 μM dihydroorotate, 60 μM 2,6-dichloroindophenol, as well as 20 mU DHODH. The volume activity of the recombinant enzyme used was 30 U/ml. Measurements were conducted in 50 mM TrisHCl (150 mM KCl, 0.1% Triton X-100, pH 8.0) at 30° C. in a final volume of 1 ml. The components were mixed, and the reaction was started by adding dihydroorotate. The course of reaction was followed by spectrophotometrically measuring the decrease in absorption at 600 nm for 2 min.
# Inhibitory studies were conducted in a standard assay with additional variable amounts of inhibitor.
# These investigations were carried out with recombinant human as well as with recombinant murine DHODH provided by Prof. M. Löffler, Marburg, Germany [M. Löffler, Chem. Biol. Interact.
# T1 sequence (Q02127 whole entry): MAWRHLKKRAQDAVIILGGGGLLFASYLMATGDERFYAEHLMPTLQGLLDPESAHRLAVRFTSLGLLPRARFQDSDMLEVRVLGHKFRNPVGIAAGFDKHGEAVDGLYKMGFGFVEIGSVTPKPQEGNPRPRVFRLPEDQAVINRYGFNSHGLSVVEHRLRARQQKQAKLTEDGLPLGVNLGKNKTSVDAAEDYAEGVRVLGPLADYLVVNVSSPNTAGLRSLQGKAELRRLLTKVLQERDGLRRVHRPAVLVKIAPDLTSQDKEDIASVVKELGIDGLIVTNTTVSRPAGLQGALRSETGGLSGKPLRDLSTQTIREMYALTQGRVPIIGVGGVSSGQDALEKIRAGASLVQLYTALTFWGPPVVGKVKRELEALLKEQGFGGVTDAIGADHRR
row,Structure (SMILES),IC50 [µM]
1,"Cc1cccc(Sc2ccc(NC(=O)C3=C(C(=O)O)CCC3)cc2)c1 [Compound 42, 2-((4-(m-tolylthio)phenyl)carbamoyl)cyclopent-1-enecarboxylic acid]",< 0.8
2,"O=C(O)C1=C(C(=O)Nc2cc(Br)c(OCc3ccccc3)c(Br)c2)CSC1 [Compound 29, 4-((4-(benzyloxy)-3,5-dibromophenyl)carbamoyl)-2,5-dihydrothiophene-3-carboxylic acid]",< 0.8
3,O=C(O)C1=C(C(=O)Nc2ccc(OCc3ccccc3C(F)(F)F)c(Cl)c2)CCC1 [Compound 68],< 0.8
4,"COc1ccc(-c2ccc(NC(=O)C3=C(C(=O)O)CCC3)c(OC)c2)c(OC)c1 [Compound 37, 2-((2′,3,4′-trimethoxy-[1,1′-biphenyl]-4-yl)carbamoyl)cyclopent-1-enecarboxylic acid]",< 0.8
5,"O=C(O)C1=C(C(=O)Nc2ccc(-c3cccc(OC(F)(F)F)c3)cc2)CCC1 [Compound 43, 2-((3′-(trifluoromethoxy)-[1,1′-biphenyl]-4-yl)carbamoyl)cyclopent-1-enecarboxylic acid]",< 0.8
6,O=C(O)C1=C(C(=O)Nc2cc(Br)c(OCc3cc(F)ccc3F)c(Br)c2)CCC1 [Compound 24],< 0.8
7,"O=C(O)C1=C(C(=O)Nc2c(F)cc(-c3ccccc3F)cc2F)CCC1 [Compound 66, 2-((2′,3,5-trifluoro-[1,1′-biphenyl]-4-yl)carbamoyl)cyclopent-1-enecarboxylic acid]",< 0.8
8,"O=C(O)C1=C(C(=O)Nc2ccc(-c3ccccc3Cl)cc2)CCC1 [Compound 14, 2-((2′-chloro-[1,1′-biphenyl]-4-yl)carbamoyl)cyclopent-1-enecarboxylic acid]",< 0.8
9,"CCOc1ccccc1-c1ccc(NC(=O)C2=C(C(=O)O)CCC2)c(F)c1 [Compound 17, 2-((2′-ethoxy-3-fluoro-[1,1′-biphenyl]-4-yl)carbamoyl)cyclopent-1-enecarboxylic acid]",< 0.8
10,"COc1cc(-c2ccccc2Cl)ccc1NC(=O)C1=C(C(=O)O)CCC1 [Compound 34, 2-((2′-chloro-3-methoxy-[1,1′-biphenyl]-4-yl)carbamoyl)cyclopent-1-enecarboxylic acid]",< 0.8
11,"O=C(O)C1=C(C(=O)Nc2ccc(OCc3c(F)cccc3F)cc2)CCC1 [Compound 16, 2-((4-((2,6-difluorobenzyl)oxy)phenyl)carbamoyl)cyclopent-1-enecarboxylic acid]",< 0.8
12,"COc1ccc(-c2ccc(NC(=O)C3=C(C(=O)O)CCC3)cc2Cl)cn1 [Compound 22, 2-((3-chloro-4-(6-methoxypyridin-3-yl)phenyl)carbamoyl)cyclopent-1-enecarboxylic acid]",< 0.8
13,"COc1cc(-c2ccccc2F)ccc1NC(=O)C1=C(C(=O)O)CCC1 [Compound 36, 2-((2′-fluoro-3-methoxy-[1,1′-biphenyl]-4-yl)carbamoyl)cyclopent-1-enecarboxylic acid]",< 0.8
14,"COc1ccccc1-c1ccc(NC(=O)C2=C(C(=O)O)CCC2)cc1 [Compound 15, 2-((2′-methoxy-[1,1′-biphenyl]-4-yl)carbamoyl)cyclopent-1-enecarboxylic acid]",< 0.8
15,"O=C(O)C1=C(C(=O)Nc2ccc(-c3cc4ccccc4s3)cc2)CCC1 [Compound 44, 2-((4-(benzo[b]thiophen-2-yl)phenyl)carbamoyl)cyclopent-1-enecarboxylic acid]",< 0.8
16,"O=C(O)C1=C(C(=O)Nc2ccc(-c3ccccc3Cl)cc2)CSC1 [Compound 41, 4-((2′-chloro-[1,1′-biphenyl]-4-yl)carbamoyl)-2,5-dihydrothiophene-3-carboxylic acid]",< 0.8
17,"O=C(O)C1=C(C(=O)Nc2ccc(Oc3ccccc3)cc2)CCC1 [Compound 50, 2-((4-phenoxyphenyl)carbamoyl)cyclopent-1-enecarboxylic acid]",< 0.8
18,"COc1cc(-c2ccccc2)ccc1NC(=O)C1=C(C(=O)O)CCC1 [Compound 33, 2-((3-methoxy-[1,1′-biphenyl]-4-yl)carbamoyl)cyclopent-1-enecarboxylic acid]",< 0.8
19,"COc1ccc(-c2ccc(NC(=O)C3=C(C(=O)O)CCC3)cc2Cl)cc1 [Compound 19, 2-((2-chloro-4′-methoxy-[1,1′-biphenyl]-4-yl)carbamoyl)cyclopent-1-enecarboxylic acid]",< 0.8
20,"COc1ccc(-c2ccc(NC(=O)C3=C(C(=O)O)CCC3)cc2C)cc1 [Compound 23, 2-((4′-methoxy-2-methyl-[1,1′-biphenyl]-4-yl)carbamoyl)cyclopent-1-enecarboxylic acid]",< 0.8

row,Structure (SMILES),IC50 [µM]
1,"O=C(O)C1=C(C(=O)Nc2c(F)cc(-c3ccccc3Cl)cc2F)CCC1 [Compound 65, 2-((2′-chloro-3,5-difluoro-[1,1′-biphenyl]-4-yl)carbamoyl)cyclopent-1-enecarboxylic acid]",< 0.8
2,"COc1ccccc1-c1ccc(NC(=O)C2=C(C(=O)O)CCC2)cc1Cl [Compound 54, 2-((2-chloro-2′-methoxy-[1,1′-biphenyl]-4-yl)carbamoyl)cyclopent-1-enecarboxylic acid]",< 0.8
3,"CCOc1cccc(-c2cc(F)c(NC(=O)C3=C(C(=O)O)CCC3)c(F)c2)c1 [Compound 63, 2-((3′-ethoxy-3,5-difluoro-[1,1′-biphenyl]-4-yl)carbamoyl)cyclopent-1-enecarboxylic acid]",< 0.8
4,"COc1cc(-c2cccc(OC(F)(F)F)c2)ccc1NC(=O)C1=C(C(=O)O)CCC1 [Compound 35, 2-((3-methoxy-3′-(trifluoromethoxy)-[1,1′-biphenyl]-4-yl)carbamoyl)cyclopent-1-enecarboxylic acid]",< 0.8
5,"COc1ccccc1-c1c(F)c(F)c(NC(=O)C2=C(C(=O)O)CCC2)c(F)c1F [Compound 56, 2-((2,3,5,6-tetrafluoro-2′-methoxy-[1,1′-biphenyl]-4-yl)carbamoyl)cyclopent-1-enecarboxylic acid]",< 0.8
6,COc1ccccc1-c1ccc(OC(=O)C2=C(C(=O)O)CCC2)c(F)c1 [Compound 76],< 0.8
7,"O=C(O)C1=C(C(=O)Nc2c(F)cc(-c3cccc(OC(F)(F)F)c3)cc2F)CCC1 [Compound 64, 2-((3,5-difluoro-3′-(trifluoromethoxy)-[1,1′-biphenyl]-4-yl)carbamoyl)cyclopent-1-enecarboxylic acid]",< 0.8
8,"CCOc1cccc(-c2ccc(NC(=O)C3=C(C(=O)O)CCC3)c(OC)c2)c1 [Compound 38, 2-((3′-ethoxy-3-methoxy-[1,1′-biphenyl]-4-yl)carbamoyl)cyclopent-1-enecarboxylic acid]",< 0.8
9,"COc1ccccc1-c1ccc(NC(=O)C2=C(C(=O)O)CCC2)c(Cl)c1 [Compound 53, 2-((3-chloro-2′-methoxy-[1,1′-biphenyl]-4-yl)carbamoyl)cyclopent-1-enecarboxylic acid]",< 0.8
10,"O=C(O)C1=C(C(=O)Nc2ccc(-c3cccc(F)c3)cc2F)CCC1 [Compound 27, 2-((3,3′-difluoro-[1,1′-biphenyl]-4-yl)carbamoyl)cyclopent-1-enecarboxylic acid]",< 0.8
11,"CCOc1ccccc1-c1cc(F)c(NC(=O)C2=C(C(=O)O)CCC2)c(F)c1 [Compound 62, 2-((2′-ethoxy-3,5-difluoro-[1,1′-biphenyl]-4-yl)carbamoyl)cyclopent-1-enecarboxylic acid]",< 0.8
12,"COc1ccc(-c2cc(F)c(NC(=O)C3=C(C(=O)O)CCC3)c(F)c2)c(OC)c1 [Compound 67, 2-((3,5-difluoro-2′,4′-dimethoxy-[1,1′-biphenyl]-4-yl)carbamoyl)cyclopent-1-enecarboxylic acid]",< 0.8
13,"CCOc1cccc(-c2ccc(NC(=O)C3=C(C(=O)O)CCC3)c(F)c2)c1 [Compound 46, 2-((3′-ethoxy-3-fluoro-[1,1′-biphenyl]-4-yl)carbamoyl)cyclopent-1-enecarboxylic acid]",< 0.8
14,"O=C(O)C1=C(C(=O)Nc2ccc(-c3ccccc3F)cc2)CCC1 [Compound 13, 2-((2′-fluoro-[1,1′-biphenyl]-4-yl)carbamoyl)cyclopent-1-enecarboxylic acid]",< 0.8
15,"Cc1cc(-c2cc(F)c(NC(=O)C3=C(C(=O)O)CCC3)c(F)c2)ccc1F [Compound 30, 2-((3,4′,5-trifluoro-3′-methyl-[1,1′-biphenyl]-4-yl)carbamoyl)cyclopent-1-enecarboxylic acid]",< 0.8
16,"COc1cccc(-c2ccc(NC(=O)C3=C(C(=O)O)CCC3)c(OC)c2)c1 [Compound 39, 2-((3,3′-dimethoxy-[1,1′-biphenyl]-4-yl)carbamoyl)cyclopent-1-enecarboxylic acid]",< 0.8
17,"COc1ccccc1-c1ccc(NC(=O)C2=C(C(=O)O)CCC2)c([N+](=O)[O-])c1 [Compound 32, 2-((2′-methoxy-3-nitro-[1,1′-biphenyl]-4-yl)carbamoyl)cyclopent-1-enecarboxylic acid]",< 0.8
18,"O=C(O)C1=C(C(=O)Nc2ccc(OCc3ccccc3F)c(Cl)c2)CCC1 [Compound 74, 2-((3-chloro-4-((2-fluorobenzyl)oxy)phenyl)carbamoyl)cyclopent-1-enecarboxylic acid]",< 0.8
19,"N#Cc1cccc(-c2ccc(NC(=O)C3=C(C(=O)O)CCC3)cc2Cl)c1 [Compound 18, 2-((2-chloro-3′-cyano-[1,1′-biphenyl]-4-yl)carbamoyl)cyclopent-1-enecarboxylic acid]",< 0.8
20,"O=C(O)C1=C(C(=O)Nc2ccc(-c3cc4ccccc4s3)cc2F)CCC1 [Compound 45, 2-((4-(benzo[b]thiophen-2-yl)-2-fluorophenyl)carbamoyl)cyclopent-1-enecarboxylic acid]",< 0.8

# Source: US8653138B2, “Calcium salts of compounds as anti-inflammatory, immunomodulatory and anti-proliferatory agents” (4SC MG, priority 2010, dated 2014)
